The source of these data is patent publication US7713994B2 (Wyeth LLC, priority 2005, dated 2010).

Structures are written as SMILES. pIC50: −log10 of the molar value.

One experiment deals with T1, IGF1-receptor kinase (Homo sapiens, UniProt P08069).
T1 construct: Purified GST-IGFR; purified Bis-IGFR and Tris-IGFR; fused on or other part: GST with a thrombin cleavage site, removed in the Bis-IGFR and Tris-IGFR forms
T1 sequence (P08069 999-1274 limits assumed): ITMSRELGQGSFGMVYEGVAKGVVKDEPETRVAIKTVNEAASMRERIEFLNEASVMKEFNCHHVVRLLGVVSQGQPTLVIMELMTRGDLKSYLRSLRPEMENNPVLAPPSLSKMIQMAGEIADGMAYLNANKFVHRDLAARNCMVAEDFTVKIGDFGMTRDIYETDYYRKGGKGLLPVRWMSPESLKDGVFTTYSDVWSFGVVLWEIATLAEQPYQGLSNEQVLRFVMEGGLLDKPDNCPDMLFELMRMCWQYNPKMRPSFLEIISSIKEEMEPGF
In words: IGF1-R kinase assay (96-well FRET Lance). The format is biochemical. Conditions: 10 uM compound. From the text: • TITLE: 96-well assay for inhibitors of IGF1-receptor kinase activity • SHORT TITLE: IGF1-R kinase assay • PURPOSE: Identify inhibitors of IGF-1 receptor kinase activity • MATERIALS AND METHODS: Overview: This is a 96-well FRET (Lance) tyrosine kinase assay. • Materials: • Purified GST-IGFR; purified Bis-IGFR and Tris-IGFR; expressed in ExpresSF insect cells. Bis and Tris IGFR are made by phosphorylating the IGFR in the presence of ATP and Mg2+, followed by thrombin cleavage to remove the GST-thrombin cleavage site, and purification by HPLC. The Bis and tris IGFR are phosphorylated on two (bis) or all three tyrosines (tris) in the activation loop. • Biotinylated peptide with a sequence corresponding to the sequence surrounding the autophosphorylation sites in IGF1-R Biotin-NH2-[…]-OH (Anaspec) • Europium-conjugated phosphotyrosine antibody (PT66) (Perkin-Elmer). • Surelight APC (Perkin-elmer) • Plates: 96-well Assay plates (polypropylene plates, natural color) • 96-well-Lance plates (Microfluor 2 black plates; Cat # 7205; Thermolabsystems. • ATP: (Amersham Pharmacia Cat # 27-2056-01), 100 mM stock. • IGFR Lance Protocol (96-well format) • Procedure: • Reagents: • Kinase Buffer (10×): • 0.5 M Hepes, pH 7.5 rt • 0.1 M MgCl2 • Quench Buffer (to be added straight, 1:1, to r×n mix): • 50 mM Hepes, pH 7.5 rt • 50 mM EDTA • Lance Detection Buffer: • 20 mM Tris-HCl, pH 7.5 rt • 0.15 M NaCl-150 • 150 ug/ml BSA (Sigma Cat# A-7284) • Eu-labeled phosphotyrosine antibody PT66 (Perkin-Elmer): 1:4000 dilution of 200 μg/ml stock • Streptavidin-APC (Perkin Elmer): 1/250 (4 microgram/ml final) • ATP (Amersham Pharmacia cat #27-2056-01) 100 mM stock: Dilute to 1 mM (10×) in water. […] Transfer 12.5[…] of the kinase reaction to the antibody detection plate. Allow antibody to react for 1 h at rt in the dark. Then read in Victor with an excitation filter of 340 nm and an emission filter of 665 nm. • Compound additions: • When Example compounds are tested, they are added from a 10% DMSO/50 mM Hepes (pH 7.5) 10× stock. 5 microliters of compound in this buffer are added to the enzyme-peptide-buffer mix. After 10′ incubation at room temperature, ATP is added to start the reaction. A no ATP background control is included in the assay. • […] OF RESULTS: Data are analyzed as follows: % Inhibition={[Sample cpm−Bkg cpm]/[No cmpd cpm−Bkg cpm]}×100%. The biological activity of representative Examples of the invention is reported in Table VII as: 0.2 µM≦x≦10 µM or % inhibition@10 µM.
Take `COc1cc(Nc2ccc3c(c2)/C(=C/Nc2ccc(CN4CCCCC4)cc2)C(=O)NC3=O)cc(C(F)(F)F)c1` [Example 900]: the “Igfr % Inhibition at 10 uM” value is reported as 20%.

Staying with this experiment, now noted: 10 uM compound; read-out: Igfr % Inhibition at 10 uM.
`Nc1cccc(Nc2ccc3c(c2)/C(=C/Nc2ccc(CN4CCCCC4)cc2)C(=O)NC3=O)c1` [Example 883, (4Z)-6-[(3-aminophenyl)amino]-4-({[4-(piperidin-1-ylmethyl)phenyl]amino}methylene)isoquinoline-1,3(2H,4H)-dione]: the inhibition at 10 µM amounted to 33%.

For `Cc1cccc(Nc2ccc3c(c2)/C(=C/Nc2ccc(CN4CCCCC4)cc2)C(=O)NC3=O)c1` [Example 884, (4Z)-6-[(3-methylphenyl)amino]-4-({[4-(piperidin-1-ylmethyl)phenyl]amino}methylene)isoquinoline-1,3(2H,4H)-dione], the inhibition at 10 µM worked out at 20%. On the same count and under the same terms, for `O=C1NC(=O)c2ccc(Nc3cccc(C(F)(F)F)c3)cc2/C1=C/Nc1ccc(CN2CCCCC2)cc1` [Example 886, (4Z)-4-({[4-(piperidin-1-ylmethyl)phenyl]amino}methylene)-6-{[3-(trifluoromethyl)phenyl]amino}isoquinoline-1,3(2H,4H)-dione] the value was 32%; for `CN(C)c1ccc(Nc2ccc3c(c2)/C(=C/Nc2ccc(CN4CCCCC4)cc2)C(=O)NC3=O)cc1` [Example 888, (4Z)-6-{[4-(dimethylamino)phenyl]amino}-4-({[4-(piperidin-1-ylmethyl)phenyl]amino}methylene)isoquinoline-1,3(2H,4H)-dione], 14%. Same read-out and setting: for `O=C1NC(=O)c2ccc(Nc3ccc(Cl)cc3)cc2/C1=C/Nc1ccc(CN2CCCCC2)cc1` [Example 890, (4Z)-6-[(4-chlorophenyl)amino]-4-({[4-(piperidin-1-ylmethyl)phenyl]amino}methylene)isoquinoline-1,3(2H,4H)-dione] the value was 47%; for `CCOC(=O)c1ccc(Nc2ccc3c(c2)/C(=C/Nc2ccc(CN4CCCCC4)cc2)C(=O)NC3=O)cc1` [Example 903, ethyl 4-{[(4Z)-1,3-dioxo-4-({[4-(piperidin-1-ylmethyl)phenyl]amino}methylene)-1,2,3,4-tetrahydroisoquinolin-6-yl]amino}benzoate], 45%.

The same experiment, now with this note: 100 micromolar ATP; read-out: Igfr ic50.
For `CC(=O)c1cccc(Nc2ccc3c(c2)/C(=C/Nc2ccc(N4CCN(C)CC4)cc2)C(=O)NC3=O)c1` [Example 881], the pIC50 is 6.44. On to `Cc1ccccc1Nc1ccc2c(c1)/C(=C/Nc1ccc(CN3CCCCC3)cc1)C(=O)NC2=O` [Example 882, 4-[(4-piperidin-1-ylmethyl-phenylamino)-methylene]-6-o-tolylamino-4H-isoquinoline-1,3-dione], for which the pIC50 was 5.35.

Turning to `CC(=O)c1cccc(Nc2ccc3c(c2)/C(=C/Nc2ccc(CN4CCCCC4)cc2)C(=O)NC3=O)c1` [Example 885, (4Z)-6-[(3-acetylphenyl)amino]-4-({[4-(piperidin-1-ylmethyl)phenyl]amino}methylene)isoquinoline-1,3(2H,4H)-dione], the pIC50 was 6.44. The same measure, in the same setting: the same measure for `O=C1NC(=O)c2ccc(Nc3ccccc3)cc2/C1=C/Nc1ccc(CN2CCCCC2)cc1` [Example 887, (4Z)-6-anilino-4-({[4-(piperidin-1-ylmethyl)phenyl]amino}methylene)isoquinoline-1,3(2H,4H)-dione]: 6.68. In the case of `Cc1ccc(Nc2ccc3c(c2)/C(=C/Nc2ccc(CN4CCCCC4)cc2)C(=O)NC3=O)cc1` [Example 889, (4Z)-6-[(4-methylphenyl)amino]-4-({[4-(piperidin-1-ylmethyl)phenyl]amino}methylene)isoquinoline-1,3(2H,4H)-dione], the pIC50 is 6.40. Turning to `COc1ccccc1Nc1ccc2c(c1)/C(=C/Nc1ccc(CN3CCCCC3)cc1)C(=O)NC2=O` [Example 891], the pIC50 was 6.24. Same read-out and setting: the same measure for `COc1cccc(Nc2ccc3c(c2)/C(=C/Nc2ccc(CN4CCCCC4)cc2)C(=O)NC3=O)c1` [Example 892, (4Z)-6-[(3-methoxyphenyl)amino]-4-({[4-(piperidin-1-ylmethyl)phenyl]amino}methylene)isoquinoline-1,3(2H,4H)-dione]: 6.02; for `N#Cc1cccc(Nc2ccc3c(c2)/C(=C/Nc2ccc(CN4CCCCC4)cc2)C(=O)NC3=O)c1` [Example 893, 3-{[(4Z)-1,3-dioxo-4-({[4-(piperidin-1-ylmethyl)phenyl]amino}methylene)-1,2,3,4-tetrahydroisoquinolin-6-yl]amino}benzonitrile]: 6.15. On the same count and under the same terms, for `NC(=O)c1ccc(Nc2ccc3c(c2)/C(=C/Nc2ccc(CN4CCCCC4)cc2)C(=O)NC3=O)cc1` [Example 894, 4-{[(4Z)-1,3-dioxo-4-({[4-(piperidin-1-ylmethyl)phenyl]amino}methylene)-1,2,3,4-tetrahydroisoquinolin-6-yl]amino}benzamide] the value was 5.95. Consider `O=C1NC(=O)c2ccc(Nc3ccc4c(c3)CCC4)cc2/C1=C/Nc1ccc(CN2CCCCC2)cc1` [Example 895, (4Z)-6-(2,3-dihydro-1H-inden-5-ylamino)-4-({[4-(piperidin-1-ylmethyl)phenyl]amino}methylene)isoquinoline-1,3(2H,4H)-dione], for which the pIC50 is 5.14.

For the molecule `O=C1NC(=O)c2ccc(Nc3ccc4c(c3)OCO4)cc2/C1=C/Nc1ccc(CN2CCCCC2)cc1` [Example 896, (4Z)-6-(1,3-benzodioxol-5-ylamino)-4-({[4-(piperidin-1-ylmethyl)phenyl]amino}methylene)isoquinoline-1,3(2H,4H)-dione], the negative logarithm of the IC50 (pIC50) is 6.08. On the same count and under the same terms, for `N#Cc1ccc(Nc2ccc3c(c2)/C(=C/Nc2ccc(CN4CCCCC4)cc2)C(=O)NC3=O)cc1` [Example 897, 4-{[(4Z)-1,3-dioxo-4-({[4-(piperidin-1-ylmethyl)phenyl]amino}methylene)-1,2,3,4-tetrahydroisoquinolin-6-yl]amino}benzonitrile] the value was 5.82; for `COc1ccc(Nc2ccc3c(c2)/C(=C/Nc2ccc(CN4CCCCC4)cc2)C(=O)NC3=O)cc1` [Example 898, (4Z)-6-[(4-methoxyphenyl)amino]-4-({[4-(piperidin-1-ylmethyl)phenyl]amino}methylene)isoquinoline-1,3(2H,4H)-dione], 6.06. The same measure, in the same setting: for `O=C1NC(=O)c2ccc(Nc3cccc(F)c3)cc2/C1=C/Nc1ccc(CN2CCCCC2)cc1` [Example 899, (4Z)-6-[(3-fluorophenyl)amino]-4-({[4-(piperidin-1-ylmethyl)phenyl]amino}methylene)isoquinoline-1,3(2H,4H)-dione] the value was 5.51; for `CC(=O)c1ccc(Nc2ccc3c(c2)/C(=C/Nc2ccc(CN4CCCCC4)cc2)C(=O)NC3=O)cc1` [Example 901, (4Z)-6-[(4-acetylphenyl)amino]-4-({[4-(piperidin-1-ylmethyl)phenyl]amino}methylene)isoquinoline-1,3(2H,4H)-dione], 5.22; for `N#Cc1ccccc1Nc1ccc2c(c1)/C(=C/Nc1ccc(CN3CCCCC3)cc1)C(=O)NC2=O` [Example 902, 2-{[(4Z)-1,3-dioxo-4-({[4-(piperidin-1-ylmethyl)phenyl]amino}methylene)-1,2,3,4-tetrahydroisoquinolin-6-yl]amino}benzonitrile], 5.43. Same read-out and setting: for `O=C1NC(=O)c2ccc(Nc3ccccc3Cl)cc2/C1=C/Nc1ccc(CN2CCCCC2)cc1` [Example 904, (4Z)-6-[(2-chlorophenyl)amino]-4-({[4-(piperidin-1-ylmethyl)phenyl]amino}methylene)isoquinoline-1,3-(2H,4H)-dione] the value was 5.77; for `O=C1NC(=O)c2ccc(Nc3cccc(Cl)c3)cc2/C1=C/Nc1ccc(CN2CCCCC2)cc1` [Example 905], 5.58. As to `CN(C)Cc1ccc(N/C=C2\C(=O)NC(=O)c3ccc(Nc4ccccc4)cc32)cc1` [Example 906, (4Z)-6-anilino-4-[({4-[(dimethylamino)methyl]phenyl}amino)methylene]isoquinoline-1,3(2H,4H)-dione], the negative logarithm of the IC50 (pIC50) is 6.04.

For orientation: inhibition means the percentage by which the read-out fell short of the control. One may read the pIC50 as −log10 of the IC50, conventionally taken in molar units.
